The target of one experiment is T1, mouse Nurr1 receptor (Mus musculus, UniProt Q06219).
T1 construct: On a cell line (N2A) endogenously expressing the mouse Nurr1 receptor; host or cells: Neuro-2A (N2A) mouse neuroblastoma cells stably transfected with 8NBRE-luciferase
The experiment can be described thus: In vitro activity on N2A cells (NBRE-luciferase reporter). Format: cell-based. To be noted: N2A cell line endogenously expressing mouse Nurr1, stably transfected with 8NBRE-luciferase; 24 hours incubation. The method, then:
Evaluation of the In Vitro Activity on N2A Cells
On a cell line (N2A) endogenously expressing the mouse Nurr1 receptor and stably transfected with the NOT binding response element (NBRE) coupled to the luciferase reporter gene. The EC50 values are between 0.01 and 1000 nM. The assays were carried out according to the procedure described below.
The Neuro-2A cell line comes from a standard commercial source (ATCC). The Neuro-2A clone was obtained, from a spontaneous tumor originating from an A albino mouse strain, by R. J Klebe et al. This Neuro-2A line is subsequently stably transfected with 8NBRE-luciferase. The N2A-8NBRE cells are cultured until confluence in 75 cm^2 culture flasks containing DMEM supplemented with 10% of fetal calf serum, 4.5 g/l of glucose and 0.4 mg/ml of geneticin. After a week of culture, the cells are recovered with 0.25% trypsin for 30 seconds and then resuspended in DMEM without phenol red, containing 4.5 g/l of glucose and 10% of Hyclone delipidized serum, and deposited into transparent-bottom 96-well white plates. The cells are deposited at a rate of 60 000 per well in 75 μl for 24 hours before the addition of the products. The products are applied in 25 μl and incubated for a further 24 hours. On the day of the measurement, an equivalent volume (100 μl) of Steadylite is added to each well and then left for a period of 30 minutes in order to obtain complete cell lysis and maximum signal production. The plates are subsequently measured in a luminescence counter for microplates after having been sealed with an adhesive film. The products are prepared in the form of a stock solution at 10^−2M and then diluted in 100% of DMSO. Each product concentration is prediluted in culture medium before incubation with the cells, thus containing 0.625% final concentration of DMSO.
For orientation: Reporter assays use an easily measured gene product as a stand-in for the process of interest.

The test system of another experiment is human NOT receptor. Kind of experiment: Binding to the human NOT receptor by SPR (surface plasmon resonance). The following applies: Biacore S51, immobilized GST-NOT whole protein and NOT ligand-binding domain, 3.75 to 0.1 μM, 4° C. The method, then: Evaluation of the Binding to the Human NOT Receptor
The direct binding between compounds of the invention and the human NOT receptor was evaluated using SPR (surface plasmon resonance) technology. In this assay, the protein is immobilized covalently at the matrix and the molecule to be studied is injected into the chamber comprising the sensor chip. The signal is directly proportional to the amount of product bound to the protein. The binding assays were carried out in a Biacore S51 instrument (Biacore Inc., Piscataway, N.J.). The GST-NOT (NOT-FL) whole protein was provided by Invitrogen (PV3265). The NOT ligand-binding domain (His-Thr-NOT 329-598) was expressed and purified as described in Nature, 423, 555-560. The two proteins, diluted to a concentration of 20 μg/ml in an acetate buffer, pH 5.0, containing 5 mM of DTT, were immobilized on a carboxymethyl 5′ dextran surface (CM5 sensor chip, Biacore Inc.) by amine coupling according to the protocol recommended by Biacore, elution being carried out with an HBS-N buffer (10 mM HEPES, 0.15 M NaCl, […], pH 7.4). Approximately 10 000-15 000 resonance units (RU) of the proteins are captured on the surface of the CM5 sensor chip. […] The dissociation was recorded for 5 minutes without any other procedure for regenerating the surface. […]
On the technique in general: SPR reads the build-up and loss of mass on a sensor chip optically.

T1 sequence (Q06219 whole entry): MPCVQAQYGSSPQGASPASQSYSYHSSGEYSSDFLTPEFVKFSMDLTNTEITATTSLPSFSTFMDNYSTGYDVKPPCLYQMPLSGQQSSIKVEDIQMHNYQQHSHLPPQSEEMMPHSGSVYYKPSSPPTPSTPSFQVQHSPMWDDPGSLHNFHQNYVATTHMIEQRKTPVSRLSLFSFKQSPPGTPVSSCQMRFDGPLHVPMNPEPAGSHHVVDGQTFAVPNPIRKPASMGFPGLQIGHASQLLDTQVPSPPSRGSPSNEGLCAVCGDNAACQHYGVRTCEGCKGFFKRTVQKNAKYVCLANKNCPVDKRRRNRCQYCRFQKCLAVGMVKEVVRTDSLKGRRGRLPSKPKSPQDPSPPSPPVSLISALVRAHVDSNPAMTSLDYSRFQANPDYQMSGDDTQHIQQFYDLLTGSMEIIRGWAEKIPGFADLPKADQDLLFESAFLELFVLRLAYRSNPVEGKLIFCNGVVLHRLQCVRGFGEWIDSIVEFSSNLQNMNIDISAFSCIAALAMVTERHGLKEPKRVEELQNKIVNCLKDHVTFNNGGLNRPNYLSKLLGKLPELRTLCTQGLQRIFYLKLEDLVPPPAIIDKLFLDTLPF

For the compound `C=C(C)c1ccc2nc(C(=O)Nc3ccccc3)cn2c1` [Compound 32, 6-Isopropenyl-N-phenylimidazo[1,2-a]pyridine-2-carboxamide], a half-maximal effect at mouse Nurr1 receptor (EC50) was put at 0.06 nM.
Consider `CN(C)c1ccc2nc(C(=O)Nc3cc(F)ccc3F)cn2c1` [Compound 58, N-(2,5-Difluorophenyl)-6-(dimethylamino)imidazo[1,2-a]pyridine-2-carboxamide], for which a half-maximal effect at mouse Nurr1 receptor (EC50) was put at 1.3 nM. Against the preceding compound, the EC50 is about 22-fold higher.
On the same count and under the same terms, in the case of `O=C(Nc1ccccc1)c1cn2cc(N3CCC3)ccc2n1` [Compound 70, 6-(Azetidin-1-yl)-N-phenylimidazo[1,2-a]pyridine-2-carboxamide] it was 0.16 nM; in that of `O=C(Nc1ccccc1F)c1cn2cc(-c3cccc(CO)c3)ccc2n1` [Compound 67, N-(2-Fluorophenyl)-6-[3-(hydroxymethyl)phenyl]imidazo[1,2-a]pyridine-2-carboxamide], 0.7 nM; in that of `Cc1ccc2nc(C(=O)Nc3ccccc3)cn2c1C` [Compound 43, 5,6-Dimethyl-N-phenylimidazo[1,2-a]pyridine-2-carboxamide], 0.3 nM.
Regarding `Cc1ccc2nc(C(=O)Nc3ccccc3)cn2c1` [Compound 19, 6-Methyl-N-phenylimidazo[1,2-a]pyridine-2-carboxamide], at mouse Nurr1 receptor, the response was half-maximal at 0.6 nM (EC50). Further, in the experiment with human NOT receptor, the “affinity (direct binding, classified by maximum binding level and kinetic parameters)” value is recorded as “low”.
Regarding `COc1ccc2nc(C(=O)Nc3ccccc3)cn2c1` [Compound 29, 6-Methoxy-N-phenylimidazo[1,2-a]pyridine-2-carboxamide], the EC50 (commonly the concentration needed to bring the measured effect to its halfway point) at mouse Nurr1 receptor was 1.3 nM.
Still for that read-out and setting: under `CC(C)(O)c1ccc2nc(C(=O)Nc3ccccc3)cn2c1` [Compound 4, 6-(1-Hydroxy-1-methylethyl)-N-phenylimidazo[1,2-a]pyridine-2-carboxamide] stands 0.66 nM.
With `O=C(Nc1ccccc1)c1cn2cc(-c3ccccc3)ccc2n1` [Compound 7, N,6-Diphenylimidazo[1,2-a]pyridine-2-carboxamide], at mouse Nurr1 receptor, the EC50 was found to be 0.9 nM. Further, the “affinity (direct binding, classified by maximum binding level and kinetic parameters)” value with human NOT receptor is listed as “moderate”.

These data come from patent US8404848B2, “Derivatives of imidazo[1,2-a]pyridine-2-carboxamides, preparation method thereof and use of same in therapeutics” (Sanofi, priority 2006, dated 2013).
